{"source": "paper PMC11351612", "about": "“Heteronuclear Complexes with Promising Anticancer Activity against Colon Cancer” (Biomedicines, 2024)", "key": {"[1]": {"system": "pIRES2-EGFP (5308 pb) plasmid DNA", "parameters": "method as in PMID 24732792, PMID 3707609", "settings": "cited from earlier work"}, "Caco-2/TC7 cells": {"system": "Caco-2/TC7 cells", "assay": "MTT cell proliferation assay, Caco-2/TC7", "type": "cell-based, human", "settings": "72 h, mean ± SE of at least three determinations", "method": "(§1) Cell culture. Human colon cancer Caco-2 cells (PD7 and TC7 clones) were kindly provided by Dr. Edith Brot-Laroche (Université Pierre et Marie Curie-Paris 6, UMR S 872, Les Cordeliers, Lyon, France) and grown in Dulbecco’s Modified Eagles medium (DMEM) (Gibco Invitrogen, Paisley, UK) supplemented with 20% foetal bovine serum (FBS), 1% non-essential amino acids, 1% streptomycin (1000 μg/mL), 1% penicillin (1000 μg/mL), and 1% amphotericin (250 U/mL). Caco-2 cells were maintained at 37 °C in a humidified atmosphere at 5% CO2.\n(§2) Cell proliferation assay. Cell proliferation was measured using the 3-(4,5-dimethyl-2-thiazoyl)-2,5-diphenyltetrazolium bromide (MTT) assay, as previously described. Caco-2/TC7 cells were seeded in a 96-well plate at a density of 4000 cells/well and grown for 24 h before being treated with each complex or DMSO (used as control). After 72 h of incubation with the complexes, 10 μL of MTT (5 mg/mL) were added and incubation was continued at 37 °C for 3 h. Inversion removed the medium and 100 μL of DMSO were added to each well. Absorbance at 560 nm, proportional to many living cells, was measured by spectrophotometry (SPECTROstar Nano, BMG LABTECH, Ortenberg, Germany) and converted into a percentage (%) of growth inhibition.\n(§3) The antiproliferative effects of the mononuclear and heteropolinuclear complexes were tested on two different Caco-2 cancer cell lines (PD7 and […]). […] Caco-2 cells of both PD7 and TC7 clones were exposed to increasing concentrations of the assayed compounds through dose–response/cell viability analysis. The results in terms of the IC50 parameter (Table 4) were obtained by using the MTT protocol."}, "[2]": {"assay": "Distribution coefficient (logP7.4), n-octanol-water shake-flask", "type": "physicochemical", "settings": "n-octanol / buffered saline pH 7.4, shake-flask", "method": "Distribution coefficient (logP7.4). The n-octanol-water coefficients of the complexes were determined using a shake-flask method, as previously reported. Briefly, buffered-saline distilled water (100 mL, phosphate buffer [PO4^3−] = 10 mM, [NaCl] = 0.15 M, pH 7.4) and n-octanol (100 mL) were shaken together for 72 h to allow for saturation of both phases. Approximately 1 mg of the complexes was dissolved in 5 mL of the aqueous phase and 5 mL of the organic phase was added, mixing them for 10 min. The resulting emulsion was centrifuged to separate the phases. The concentration of the compounds in each phase was determined using UV-vis absorbance spectroscopy. The logP7.4 was defined as log{[compound(organic)]/[compound(aqueous)]}."}, "Caco-2/PD7 cells [3]": {"system": "Caco-2/PD7 cells", "assay": "Annexin V/propidium iodide apoptosis assay, Caco-2/PD7", "type": "cell-based, human", "settings": "Caco-2/PD7, annexin V/PI", "method": "Study of cell death. After the appropriate incubation, cells were collected and stained with annexin V-FTIC, according to the manufacturer’s instructions. A negative control was prepared, containing unreacted cells to define the basal level of apoptotic and necrotic or dead cells. After incubation, the cells were transferred to flow-cytometry tubes and washed twice with temperate phosphate-buffered saline (PBS), suspended in 100 μL annexin V binding buffer (10 mM Hepes/NaOH, pH 7.4, 140 mM NaCl, 2.5 mM CaCl2), then 5 μL of annexin V-FITC, and 5 μL of PI was added to each 100 μL of cell suspension. After incubation for 15 min at room temperature in the dark, 400 μL of 1× annexin binding buffer was added and analysed by flow cytometry within one hour. The signal intensity was measured using a FACSARIA BD and analysed using FASCDIVA BD.\nThis inhibition of apoptosis produces a fast growth and proliferation of cancerous cells. The population of early and late apoptotic cells increased to 35% after treatment with complex 1 in comparison with the vehicle-treated cells (12%). […] Additionally, the effect observed after treating the cells with a dosage equal to the IC50 concentration is time-dependent. […]"}, "Caco-2/PD7 cells [4]": {"system": "Caco-2/PD7 cells", "assay": "MTT cell proliferation assay, Caco-2/PD7", "type": "cell-based, human", "settings": "MTT, 72 h; mean ± SE of at least three determinations", "method": "as §1, §2, §3"}, "ct-DNA (calf thymus DNA) [5]": {"system": "ct-DNA (calf thymus DNA)", "parameters": "method as in PMID 20926136", "settings": "cited from earlier work"}, "A2780/R": {"system": "A2780/R", "parameters": "method as in PMID 19937669", "settings": "cisplatin-resistant ovarian cancer cell line; cited from earlier work"}, "ct-DNA (calf thymus DNA) [6]": {"system": "ct-DNA (calf thymus DNA)", "assay": "ct-DNA binding constant by UV-vis titration (Benesi-Hildebrand)", "settings": "complex 20 μM, ct-DNA 0-100 μM, Tris-HCl pH 7.2", "method": "A ctDNA solution was prepared at 1 mg/mL in tris (tris(hydroxymethyl)aminomethane)/HCl (0.1 M, pH 7.2). Then, the purity of the ctDNA was checked, recording its spectra and calculating the absorption ratio between 260 and 280 nm. This experiment also provides the means to calculate the concentration of ctDNA using the Beer–Lambert formula, with the extinction coefficient of 6600 M^−1cm^−1. Every experiment was corrected with a baseline of the buffer and the corresponding concentration of dimethylsulfoxide. The addition of DNA solution was performed in both assay and reference cuvettes. Then, the binding constant was calculated using the modified Benesi–Hildebrand equation. Kb is the binding constant, εf, εa, and εb are the extinction coefficients for the free compound, the apparent coefficient (calculated as the ratio of the absorbance and the concentration of the compound in the experiment), and the compound–DNA complex, respectively. […]\nThe binding capabilities of [Cu{Au(Spy)(PTA)}2]PF6 (1) and [Au(Spy)(PTA)] were estimated towards […] by recording the electronic absorption spectra throughout their interaction. The absorbance measurements were performed by successive additions of a DNA stock solution (10, 20, 30, 40 up to 100 μL) which afforded the final concentration of ct-DNA (from 0 to 100 μM) while maintaining the concentration of the complexes (20 μM). […]"}, "[7]": {"system": "pIRES2-EGFP (5308 pb) plasmid DNA", "assay": "Gel electrophoretic mobility of plasmid DNA", "type": "binding", "settings": "metal-to-base pair ratios 0.5, 1, 2; 0.8% agarose gel", "method": "Adducts with pIRES2-EGFP (5308 pb) plasmid DNA (Catalog #6029-1) were prepared by adding the required volume of a freshly prepared solution of metal complexes in MilliQ water. The concentration of pIRES2-EGFP in the reaction mixture was 117 ng/µL, and the complexes’ concentration was varied to give different metal-to-base pair stoichiometries (0.5, 1 and 2). The mobility of the metal complex-treated pIRES2-EGFP samples was analysed by gel electrophoresis on a 0.8% (w/v) agarose gel (Boehringer-Mannheim, Mannheim, Germany) at […] at 25 °C in Tris-acetate/EDTA buffer. The gel was stained for 30 min in […] (w/v) ethidium bromide and the bands were visualised with a UVP gel scanner.\nIn addition, the interaction of both complexes with DNA was also studied by their ability to modify the electrophoretic mobility of the pIRES2-EGFP (5308 pb) plasmid DNA and compared to cisplatin (Figure 7)."}, "A2780/S": {"system": "A2780/S", "parameters": "method as in PMID 19937669", "settings": "ovarian cancer cell line; cited from earlier work"}, "[8]": {"system": "differentiated Caco-2/PD7 cells", "assay": "Cell viability of differentiated (enterocyte-like) Caco-2/PD7 cells", "type": "cell-based, human", "method": "For cell viability studies of differentiated (enterocyte-like) cells, Caco-2/PD7 cells were seeded on 96-well plates at a density of 4 × 10^3 cells/well and incubated for approximately 10–15 days, changing the culture medium every 3 days, up to reaching confluence—the moment in which the cells were treated with the complexes at concentrations equal to their mean IC50 and 2 × IC50 values.\nIt is well known that the Caco-2 cell line undergoes spontaneous differentiation into enterocytic-like cells when it reaches confluency. As a result, these cells become polarised, expressing apical and basolateral surfaces with established tight junctions. This allowed for the evaluation of the cytotoxic impact of the complexes on differentiated cells (acting as noncarcinogenic) and a comparison with the viability of undifferentiated cells. Thus, the toxicity of the two heteronuclear compounds has been studied by cell viability experiments by treatment of Caco-2/PD7 cells after differentiation with complexes 1 and 2 at the corresponding concentrations equivalent to IC50 and 2 × IC50 values for 72 h. The results expressed as the % of cell viability observed after treatment with the complexes (or 100% for non-treated control cells) are summarised in Figure S16 (Supplementary Materials). […] However, the cell viability is around 90% even when the cells are treated with double the IC50 concentration."}}, "note": "Where two headings read alike, the source gives them in different places."}
{"compound": "CC(=O)OC[C@H]1O[C@@H]([S-])[C@H](OC(C)=O)[C@@H](OC(C)=O)[C@@H]1OC(C)=O.CCP(CC)CC.[Au+]", "note": "[Auranofin, reference compound]", "values": [{"measurement": "Reactivity with DNA", "setting": "[1]", "result": "lack of reactivity"}, {"measurement": "IC50", "setting": "Caco-2/TC7 cells", "result": "2100 ± 400", "unit": "nM"}, {"measurement": "logP", "setting": "[2]", "result": "−2.53"}, {"measurement": "Cell death stage after treatment", "setting": "Caco-2/PD7 cells [3]", "result": "most cells being found in late-stage apoptosis and necrosis"}, {"measurement": "IC50", "setting": "Caco-2/PD7 cells [4]", "result": "1800 ± 100", "unit": "nM"}]}
{"compound": "CC[n+]1c(-c2ccccc2)c2cc(N)ccc2c2ccc(N)cc21", "note": "[EB, ethidium bromide]", "values": [{"measurement": "DNA binding constant Kb", "setting": "ct-DNA (calf thymus DNA) [5]", "result": "1.23(±0.07) × 10^5 M^−1"}]}
{"compound": "c1ccc([S][Au][P]23CN4CN(CN(C4)C2)C3)nc1", "note": "[[Au(Spy)(PTA)]]", "values": [{"measurement": "IC50", "setting": "A2780/R", "result": 8.2, "unit": "µM"}, {"measurement": "DNA binding constant Kb", "setting": "ct-DNA (calf thymus DNA) [6]", "result": 90600, "unit": "M⁻¹"}, {"measurement": "Effect on electrophoretic mobility of plasmid DNA", "setting": "[7]", "result": "does not affect the mobility"}, {"measurement": "IC50", "setting": "Caco-2/TC7 cells", "result": "2030 ± 20", "unit": "nM"}, {"measurement": "IC50", "setting": "A2780/S", "result": 9.6, "unit": "µM"}, {"measurement": "IC50", "setting": "Caco-2/PD7 cells [4]", "result": "2640 ± 250", "unit": "nM"}]}
{"compound": "N.N.[Cl][Pt][Cl]", "note": "[cisplatin]", "values": [{"measurement": "Effect on electrophoretic mobility of plasmid DNA", "setting": "[7]", "result": "greatly alters the electrophoretic mobility"}]}
{"compound": "[Zn{Au(PTA)(Spy)}2]Cl2 [compound 3]", "values": [{"measurement": "Cell viability of differentiated Caco-2 cells at 2 × IC50", "setting": "[8]; differentiated Caco-2/PD7, concentration = 2 × IC50, 72 h", "result": "93.18 ± 11.99", "unit": "%"}, {"measurement": "Cell viability of differentiated Caco-2 cells at IC50", "setting": "[8]; differentiated Caco-2/PD7, concentration = IC50, 72 h", "result": "98.87 ± 21.63", "unit": "%"}]}
